# Laboratory results taken from publication PMC10508484, “Development and application of a PBPK modeling strategy to support antimalarial drug development” (CPT: Pharmacometrics & Systems Pharmacology, 2023).
# Values joined by “and” are separate entries in the source; they are usually repeats but may differ in a detail not shown here. Identical values can stand only once. Like-named read-outs stand apart in the source and are kept apart here.
# How the values were obtained:
# [1] = PBPK simulation of drug-drug interactions (Simcyp V19); design: species or system human; conditions: ratio of simulated to clinically observed AUC ratio; DDI of the respective line of Table S3
# Text: Here, we provide three example applications where the available PBPK models were used to address questions relating to DDI assessment. […] Additional simulation methods are provided in Appendix S1.
# All simulations, including the ones performed for the applications, were run using Version 19 of the Simcyp population-based PBPK simulator (Simcyp (Certara), Sheffield, UK) and unless stated otherwise, input parameters for all drugs are as specified (Supplementary Information Table S1). All simulations were run using ten virtual trials that were matched as closely as possible to the clinical study volunteers in terms of the number of subjects, their age, the proportion of males/females and according to the same study design.
# [2] = In vitro flags for victim and perpetrator properties conferring DDI liability; type: in vitro ADME, human; conditions: in vitro flag, mainly based on in vitro determinations
# [3] = target: T1, CYP3A4 (Homo sapiens, UniProt P08684)
# Text: (§1) In nearly all cases the fraction of systemic elimination metabolised by a given enzyme (fm) determined in vitro was unavailable in the literature.
# [4] = tested on: CYP2B6; assay: Metabolism by CYP2B6 (CLint, Vmax, Km, fm); type: in vitro ADME, human; conditions: fraction metabolised used in the PBPK model (artemether: without induction)
# Text: as §1
# [5] = PBPK input; ref Charman et al., 2020 1; cited from earlier work
# [6] = tested on: CYP2B6; design: method as in Honda et al., 2011 12; conditions: ref Honda et al., 2011 12; cited from earlier work
# [7] = cited from earlier work
# [8] = cited from earlier work; remark: listed apart in the source
# [9] = cited from earlier work; for fu: PBPK input
# [10] = 2020 1, cited from earlier work
# [11] = tested on: Caco-2 cells; conditions: cited from earlier work
# [12] = target: T1, CYP3A4; conditions: cited from earlier work
# [13] = tested on: CYP2C9; conditions: ref mefloquine Karbwang et al., 1988 58; tafenoquine Charman et al., 2020 1; cited from earlier work
# [14] = cited from earlier work; remark: listed apart in the source
# [15] = tested on: CYP1A2; conditions: read-out: CYP1A2 IC50; ref Charman et al., 2020 1; cited from earlier work
# [16] = Fraction unbound in human liver microsomes (fumic); conditions: extrapolated from value measured at 0.4 mg/mL to 0.1 mg/mL, method of Austin et al., 2002
# [17] = 80 mg BID (Day 22-24) + rifampicin 600 mg QD (Days 1-24), HIV-infected, ref Lamorde et al., 2013 3
# [18] = 80 mg BID (Days 13-15) + efavirenz 600 mg QD (Days 1-16), ref Huang et al., 2012 4
# [19] = 80 mg SD (Day 1) + ketoconazole 400 mg SD (Day 1), 200 mg QD (Days 2-5), ref Lefevre et al., 2002 2
# [20] = calibrated against propranolol, plasma as medium for atovaquone and piperaquine, ref Charman et al., 2020 1
# T1 sequence (P08684 whole entry): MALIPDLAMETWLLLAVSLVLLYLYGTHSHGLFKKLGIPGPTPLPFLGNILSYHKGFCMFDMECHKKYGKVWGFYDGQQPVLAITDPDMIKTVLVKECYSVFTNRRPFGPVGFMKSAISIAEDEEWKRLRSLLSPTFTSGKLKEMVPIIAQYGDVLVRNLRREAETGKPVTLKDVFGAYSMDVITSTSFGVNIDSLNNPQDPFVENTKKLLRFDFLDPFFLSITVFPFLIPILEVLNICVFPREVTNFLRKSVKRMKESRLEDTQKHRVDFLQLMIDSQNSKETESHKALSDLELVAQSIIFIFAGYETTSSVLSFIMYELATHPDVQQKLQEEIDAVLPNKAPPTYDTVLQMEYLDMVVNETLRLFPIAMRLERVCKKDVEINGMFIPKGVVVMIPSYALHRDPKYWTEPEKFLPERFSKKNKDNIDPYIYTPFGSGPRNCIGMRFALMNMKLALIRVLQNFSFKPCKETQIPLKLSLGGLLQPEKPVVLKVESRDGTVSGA
compound,measurement,setting,value
"CO[C@H]1O[C@@H]2O[C@@]3(C)CC[C@H]4[C@H](C)CC[C@@H]([C@H]1C)[C@@]24OO3 [Artemether, artemether]",AUC ratios Sim/Obs,[1],1.00 and 1.08 and 1.15
same,Risk as a perpetrator,[2],CYP2B6 inducer
same,Risk as a victim,[2],Substrate of CYP2B6 and CYP3A4
same,fmCYP3A4,[3],53%
same,fmCYP2B6,[4],47%
same,Log P,[5],3.7
same,CYP2B6 Vmax reported,[6],17.9 pmol/min/pmol
same,Km,[6],1950 nM
same,AUC Obs,"[7]; 80 mg BID (Day 3 PM), 60-72 h, ref Huang et al., 2012 8",59.5 ng·h/mL
same,AUC Obs,"[7]; 80 mg BID (Day 3 PM), 62-72 h, ref Lefevre et al., 2002 7",61.4 ng·h/mL
same,Cmax Obs,"[7]; 80 mg BID (Day 3 PM), ref Huang et al., 2012 8",21.2 ng/mL
same,Cmax Obs,"[7]; 80 mg BID (Day 3 PM), ref Lefevre et al., 2002 7",30.8 ng/mL
same,AUC Obs,"[7]; 80 mg SD, Indian, 0-inf, ref Lefevre et al., 2013 6",408 ng·h/mL
same,Cmax Obs,"[7]; 80 mg SD, Indian, ref Lefevre et al., 2013 6",113 ng/mL
same,AUC Obs,"[7]; 80 mg SD, 0-inf, ref Lefevre et al., 2002 5",320 ng·h/mL
same,Cmax Obs,"[7]; 80 mg SD, ref Lefevre et al., 2002 5",104 ng/mL
same,AUC ratio Obs,[8]; [17],0.11
same,Cmax ratio Obs,[8]; [17],0.18
same,AUC ratio Obs,[8]; [18],0.49
same,Cmax ratio Obs,[8]; [18],0.79
same,AUC ratio Obs,[8]; [19],2.51
same,Cmax ratio Obs,[8]; [19],2.24
same,fu,"[9]; ref Charman et al., 2020 1",0.038
same,B:P,"[10]; PBPK input, ref artemether Colussi et al., 1999 11, atovaquone Rolan et al., 1997 14, Beerahee, 1999 16, Charman et al., azithromycin Pene Dumitrescu et al., 2013 21, DEAQ Winstanley et al., 1987 9, proguanil weighted mean Helsby et al., 1993 61, Wattanagoon et al., 1987 63",0.8
same,Caco-2 (Papp A-B),[11]; [20],42.7 10-6 cm/s
same,CYP3A4 Vmax reported,[12],12.3 pmol/min/pmol
same,Km,[12],8.24 µM
"OC(c1cc(C(F)(F)F)nc2c(C(F)(F)F)cccc12)C1CCCCN1 (centres unmarked) [Mefloquine, mefloquine]",Risk as a victim,[2],Substrate of CYP3A4
same,fmCYP3A4,[3],95%
same,CLint CYP3A4,[3]; microsomes,0.168 µL/min/pmol
same,Ki,[13],260 µM
same,AUC Obs,"[7]; in vivo, 250 mg",116000 ng·h/mL
same,Cmax Obs,"[7]; in vivo, 250 mg",310 ng/mL
same,AUC Obs,"[7]; in vivo, 750 mg",393500 ng·h/mL
same,AUC Obs,"[7]; in vivo, 1000 mg",516000 ng·h/mL
same,Cmax Obs,"[7]; in vivo, 1000 mg",960 ng/mL
same,Cmax Obs,"[7]; in vivo, 1500 mg",1440 ng/mL
same,Caco-2 (Papp A-B),[11]; Caco-2,66 10-6 cm/s
same,CL PO,"[14]; in vivo, po",2.09 L/h
same,CL renal,[14]; in vivo,0.07 L/h
"COc1cc(NC(C)CCCN)c2ncccc2c1 (centres unmarked) [Primaquine, primaquine]",Risk as a perpetrator,[2],CYP1A2 inhibitor
same,Risk as a victim,[2],Substrate of MAO and CYP2D6
same,AUC Obs,"[7]; 15 mg QD (Day 14), 0-inf, ref Ward et al., 1985 14",443 ng·h/mL
same,Cmax Obs,"[7]; 15 mg QD (Day 14), ref Ward et al., 1985 14",66 ng/mL
same,AUC Obs,"[7]; 15 mg SD, 0-inf, ref Mihaly et al., 1985 12",500 ng·h/mL
same,AUC Obs,"[7]; 15 mg SD, 0-inf, ref Ward et al., 1985 14",468 ng·h/mL
same,Cmax Obs,"[7]; 15 mg SD, ref Mihaly et al., 1985 12",53 ng/mL
same,Cmax Obs,"[7]; 15 mg SD, ref Ward et al., 1985 14",65 ng/mL
same,AUC Obs,"[7]; 30 mg SD, 0-inf, ref Hanboonkunupakarn et al., 2014 13",1130 ng·h/mL
same,AUC Obs,"[7]; 30 mg SD, 0-inf, ref Jittamala et al., 2015 15",1180 ng·h/mL
same,Cmax Obs,"[7]; 30 mg SD, ref Hanboonkunupakarn et al., 2014 13",128 ng/mL
same,Cmax Obs,"[7]; 30 mg SD, ref Jittamala et al., 2015 15",139 ng/mL
same,AUC Obs,"[7]; 45 mg SD, 0-inf, ref Mihaly et al., 1985 12",1700 ng·h/mL
same,Cmax Obs,"[7]; 45 mg SD, ref Mihaly et al., 1985 12",176 ng/mL
same,fu,"[9]; ref Charman et al., 2020 1",0.26
same,B:P,[10]; ref Charman et al.,0.82
same,Caco-2 (Papp A-B),[11]; [20],29 10-6 cm/s
same,CL IV,"[14]; clinically observed, ref atovaquone Lavelle et al., 1994 17, chloroquine Walker et al., 1987 29, Gustafsson et al., 1983 30, doxycycline Raghuram et al., 1982 48, Nguyen et al., 1989 49, primaquine Mihaly et al., 1985 26, quinine White et al., 1983 77, Paintaud et al., 1993 78",24.2 L/h
same,fe (fraction excreted unchanged in urine),"[14]; ref atovaquone Rolan et al., 1997 14, mefloquine Schwartz et al., 1982 57, primaquine White, 1985 62, proguanil (extensive metabolisers) Jeppesen et al., 1997 34, pyronaridine Wattanavijitkul, 2010 74, sulfadoxine assumed with Edstein, 1987 83",< 0.01%
same,IC50,[15],< 250 nM
same,fumic,[16],0.84
"COc1cc(C)c2c(Oc3cccc(C(F)(F)F)c3)c(OC)cc(NC(C)CCCN)c2n1 (centres unmarked) [Tafenoquine, tafenoquine]",Risk as a perpetrator,[2],CYP3A4 and CYP2C9 inhibitor
same,Ki,[13],10 µM
same,AUC Obs,"[7]; 300 mg SD, 0-72 h, ref Green et al., 2014 45",10611 ng·h/mL
same,Cmax Obs,"[7]; 300 mg SD, ref Green et al., 2014 45",186 ng/mL
same,AUC Obs,"[7]; 400 mg QD (3 days), 0-72 h, ref Green et al., 2014 45",41896 ng·h/mL
same,Cmax Obs,"[7]; 400 mg QD (3 days), ref Green et al., 2014 45",724 ng/mL
same,AUC Obs,"[7]; 600 mg SD, 0-72 h, ref Green et al., 2014 45",22986 ng·h/mL
same,Cmax Obs,"[7]; 600 mg SD, ref Green et al., 2014 45",422 ng/mL
same,fu,"[9]; ref atovaquone Mepron Prescribing Information, 2008, Nixon et al., 2013 13, Rolan et al., 1997 14, azithromycin Foulds et al., 1990 20, chloroquine Ofori-Adjei et al., 1986 27, Walker et al., 1983 28, DHA Batty et al., 2004 41 (healthy volunteers), lumefantrine CDER submission 22-269, proguanil Wattanagoon et al., 1987 63, tafenoquine Dow et al., 2020 84",0.005
same,"fu, range reported in the literature","[9]; depending on the methodology used, ref literature",0.0007 to 0.11
same,Main binding protein,"[9]; ref amodiaquine, DEAQ Hietala, 2009 2, atovaquone Nixon et al., 2013 13, DHA Batty et al., 2004 41, mefloquine, tafenoquine (also AGP) Zsila et al., 2008 54",HSA
same,B:P,[10]; ref Charman et al.,1.3
same,CL PO,"[14]; clinically observed oral (in vivo) clearance, pyronaridine: blood, ref amodiaquine Winstanley et al., 1987 9, DEAQ Akande et al., 2015 8, Scarsi et al., 2014 35, Tarning et al., 2012 36, Orrell et al., 2008 37, DHA Na-Bangchang et al., 2004 42, lumefantrine Lefevre et al., 2002 52, Hoglund et al., 2015 53, mefloquine Charles et al., 2007 56, proguanil Jeppesen et al., 1997 34, pyronaridine Jittama",3.08 L/h
